The record followed here is patent US8883821B2, “Substituted pyrazolo[3,4-b]pyridines as medicaments” (Pierre Fabre Medicament, priority 2011, dated 2014).

This series deals with human anaplastic large-cell lymphoma (ALCL) tumor model. Nature of the series: Antitumor activity in vivo, ALCL tumors grafted subcutaneously in mice, oral daily dosing. To be noted: mice with subcutaneous ALCL tumors, daily schedule, animals weighed. As to the method: Pharmacological Activity In Vivo
The compounds were administered orally at various doses on a daily schedule to mice with ALCL tumors grafted subcutaneously. Tumor size was measured regularly during the study and the animals were weighed several times per week in order to identify any adverse effects. A compound is declared active if it induces inhibition of ALCL tumor growth by at least 58%.

Molecules are shown by their SMILES.

On to `CN1CCN(c2ccc(C(=O)Nc3n[nH]c4ncc(Sc5cc(F)cc(F)c5)cc34)c(NC3CCOCC3)c2)CC1` [Example 30, N-(5-(3,5-difluorophenylthio)-1-H-pyrazolo[3,4-b]pyridine-3-yl)-4-(4-methylpiperazine-1-yl)-2-(tetrahydro-2H-pyran-4-ylamino)benzamide], for which the “adverse effects / tolerance in vivo” value was “no adverse effects”.

For `CN1CCN(c2ccc(C(=O)Nc3n[nH]c4ncc(Cc5cc(F)cc(F)c5)cc34)c(NC3CCOCC3)c2)CC1` [Example 30-9, N-(5-(3,5-difluorobenzyl)-1H-pyrazolo[3,4-b]pyridin-3-yl)-4-(4-methylpiperazin-1-yl)-2-(tetrahydro-2H-pyran-4-ylamino)benzamide], the “adverse effects / tolerance in vivo” value is recorded as “no adverse effects”.
